According to publication PMC4641600, “Novel Activities of Select NSAID R-Enantiomers against Rac1 and Cdc42 GTPases” (PLoS ONE, 2015):

Columns and labels:
Rab7 = Rab7 (Homo sapiens, UniProt P51149); assay: Dose response, BODIPY-GTP binding; conditions: 10 nM to 100 µM
H-RasG12V = H-RasG12V (Homo sapiens, UniProt P01112, G12V); assay: Dose response, BODIPY-GTP binding; conditions: 10 nM to 100 µM
Protocol: (§1) For multiplex analyses of small GTPases, 4 μm diameter glutathione-beads (GSH-beads) distinguished by seven different intensities of red fluorescence were used according to our previously described protocols. The GST-GTPases included the following eight Ras-related small GTPases: Rab2 wt, Rab7 wt, Cdc42 wt, Cdc42Q61L activating mutant, H-Ras wt, H-RasG12V, Rac1 wt and Rac1Q61L activating mutant. Briefly, Prestwick Chemical Library® compounds were tested at 10 μM compound and 1% DMSO final concentrations. After a 10 min pre-incubation with the compound BODIPY- FL-GTP (100 nM final) was added to each well and bead associated fluorescence was measured. Sample analysis was conducted with a HyperCyt® high throughput flow cytometry platform. Flow cytometric light scatter at 488 nm and fluorescence emission at 530 +/− 20 nm (FL1) and 665 +/− 10 nm (FL8) were collected on a Cyan ADP flow cytometer (Beckman Coulter, Fullerton, CA). IDLQuery software was used to determine the compound activity in each well. Gating based on forward scatter (FS) and side scatter (SS) parameters was used to identify singlet bead populations. Gating based on FL8 emission distinguishes the beads coated with different proteins, and the median FL1 fluorescence per bead population were calculated. A compound was considered a “potential active” if the change in BODIPY-FL-GTP binding differed greater than 20% from that measured in DMSO treated controls.
(§2) Test compounds identified for follow-up after the primary screen were tested at dilutions ranging from 10 nM to 100 μM final concentration against individual GTPases in multiplex and single-plex assays. Compounds tested in dose response assays were serially diluted 1:3 a total of eight times from a starting concentration of 10 mM giving a 9-point dilution series in DMSO.
(§3) bConfirmatory screens entailed dose response assays conducted in a multiplex format with eight GTPases tested as for primary screen. BODIPY-GTP-binding activity was
(§4) measured in the presence of 10 nM to 100 µM of each of 11 test compounds (4 primary screen hits and 7 additional NSAIDs considered to have chemical similarity to GTPase
(§5) active compounds). GST-GFP coated beads served as a control to detect non-specific dissociation or denaturation caused by compound addition–none of the tested NSAIDs had
(§6) any effect on bead-GST-protein binding. EC50 values were determined using Prism to determine dose response fits as shown in Figure 1 of main text; fits have R2 > 0.9. Active
(§7) compounds based on same definition used as in primary screena. […]
‡A well-characterized selective Cdc42 inhibitor served as a positive control.

Rac1 [1] = biological target: T1, Rac1 (Homo sapiens, UniProt P63000); assay: G-trap flow cytometric effector binding assay, HeLa cells; format: cell-based
T1 construct: endogenous in cells; host or cells: HeLa

Cdc42 wt = Cdc42 wt (Homo sapiens, UniProt P60953); assay: Dose response, BODIPY-GTP binding; conditions: 10 nM to 100 µM
Rac1 wt = Rac1 wt (Homo sapiens, UniProt P63000); assay: Dose response, BODIPY-GTP binding; conditions: 10 nM to 100 µM
Rab2 = Rab2 (Homo sapiens, UniProt P61019); assay: Dose response, BODIPY-GTP binding; conditions: 10 nM to 100 µM
Rac1 [2] = biological target: T1, Rac1; assay: GLISA, OvCa433 cells; format: cell-based; conditions: 300 μM, 1 h pretreatment, 10 ng/ml EGF 2 min
[3] = typical oral dosing (S-Naproxen 500 mg; 6-MNA 750-20000 mg of nabumetone); ref Roche Investigator’s brochure, 9, 10, 17-19, 21, 23; cited from earlier work
H-Ras wt = H-Ras wt (Homo sapiens, UniProt P01112); assay: Dose response, BODIPY-GTP binding; conditions: 10 nM to 100 µM
Protocol: as §1, §2, §3, §4, §5, §6, §7

Rac1 [4] = biological target: T2, Rac1 (Mus musculus, UniProt P63001); assay: GLISA, Swiss 3T3 cells; format: cell-based
T2 construct: endogenous in cells; host or cells: Swiss 3T3

GST-Rac1 = GST-Rac1 (Homo sapiens, UniProt P63000); assay: In vitro nucleotide binding assay on individual GTPase (13 µm GSH beads); conditions: GST-Rac1 and GST-Cdc42; BODIPY-GTP 300 nM
[5] = system: OvCa429 and OvCa433 cells; assay: Boyden chamber cell migration assay; format: cell-based, human; conditions: Homo sapiens; estimated from limited dose response data; read-out: IC50 migration Rac1/Cdc42 dependent (est)

Rab2, sequence (P61019 whole entry, species assumed): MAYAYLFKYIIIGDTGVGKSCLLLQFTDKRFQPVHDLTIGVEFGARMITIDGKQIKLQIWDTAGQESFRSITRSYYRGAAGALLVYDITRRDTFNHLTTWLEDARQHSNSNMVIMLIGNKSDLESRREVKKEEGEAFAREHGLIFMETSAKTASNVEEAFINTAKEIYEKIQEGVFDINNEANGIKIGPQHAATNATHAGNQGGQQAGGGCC
Cdc42 wt, sequence (P60953 whole entry): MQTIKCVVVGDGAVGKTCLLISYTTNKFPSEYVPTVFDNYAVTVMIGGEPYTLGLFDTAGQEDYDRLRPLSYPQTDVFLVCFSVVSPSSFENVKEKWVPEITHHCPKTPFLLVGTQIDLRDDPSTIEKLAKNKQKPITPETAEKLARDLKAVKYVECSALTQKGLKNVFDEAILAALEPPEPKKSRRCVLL
Rab7, sequence (P51149 whole entry, species assumed): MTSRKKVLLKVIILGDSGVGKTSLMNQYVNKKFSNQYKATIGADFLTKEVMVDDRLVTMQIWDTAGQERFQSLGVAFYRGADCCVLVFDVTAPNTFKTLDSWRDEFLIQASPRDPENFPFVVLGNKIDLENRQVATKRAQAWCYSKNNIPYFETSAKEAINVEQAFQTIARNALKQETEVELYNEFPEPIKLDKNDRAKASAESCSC

COc1ccc2cc(CC(=O)O)ccc2c1 [6-MNA, 6-methoxy-2-napthalene acetic acid]
Rab7 EC50 (Rab7): inactive
H-Ras (act) EC50 (H-RasG12V): inactive
fold lower potency than R-naproxen, Rac1 (Rac1 [1]): up to 6 fold
Cdc42 wt EC50 (Cdc42 wt): inactive
Rac1 wt EC50 (Rac1 wt): inactive
Rab2 EC50 (Rab2): inactive
Rac1 activation by EGF (Rac1 [2]): no or limited effect
Serum Cmax [3]: 41200 ng/mL
H-Ras wt EC50 (H-Ras wt): inactive
EGF-mediated Rac1 activation (Rac1 [4]; 300 μM, 15 min or 1 h (either time point)): no inhibitory effect
inhibition at 300 µM (Rac1 [4]; Swiss-3T3, at 300 µM): 0%
inhibition of BODIPY-GTP binding (GST-Rac1): inactive
IC50 [5]: > 300 µM
